In PubChem BioAssay AID2060486 (Molecular Pharmacology Branch, DTP, NCI, 2025):
pIC50: −log10 of the molar value.

Test system: IGROV1 complex spheroids (HUVEC, MSC), viability % test/control
Assay: Anticancer human tumor IGROV1 cell line growth inhibition [GQUAD];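 also: spheroids exposed to compounds for 7 days before readout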;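 as to viability, T/C: 100% = DMSO vehicle control viability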
Details: for pIC50: curve of first compound; for viability, T/C: stronger effect = lower value
In short: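 Tumor cells were grown as complex spheroids with HUVEC endothelial cells and mesenchymal stem cells as stroma. G-quadruplex stabilizers were combined with targeted agents over half-log dilutions from near the clinical Cmax, or from 10 microM.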

[1] = second compound 0.0316 µM, first compound 0.0316 µM
[2] = second compound 0.0316 µM, first compound 0.1 µM
[3] = second compound 0.0316 µM, first compound 0.316 µM
[4] = second compound 0.0316 µM, first compound 1 µM
[5] = second compound 0.0316 µM, first compound 3.16 µM
[6] = second compound 0.0316 µM, first compound 10 µM
[7] = second compound 0.1 µM, first compound 0.0316 µM
[8] = second compound 0.1 µM, first compound 0.1 µM
[9] = second compound 0.1 µM, first compound 0.316 µM
[10] = second compound 0.1 µM, first compound 1 µM
[11] = second compound 0.1 µM, first compound 3.16 µM
[12] = second compound 0.1 µM, first compound 10 µM
[13] = second compound 0.316 µM, first compound 0.0316 µM
[14] = second compound 0.316 µM, first compound 0.1 µM
[15] = second compound 0.316 µM, first compound 0.316 µM
[16] = second compound 0.316 µM, first compound 1 µM
[17] = second compound 0.316 µM, first compound 3.16 µM
[18] = second compound 0.316 µM, first compound 10 µM
[19] = second compound 1 µM, first compound 0.0316 µM
[20] = second compound 1 µM, first compound 0.1 µM
[21] = second compound 1 µM, first compound 0.316 µM
[22] = second compound 1 µM, first compound 1 µM
[23] = second compound 1 µM, first compound 3.16 µM
[24] = second compound 1 µM, first compound 10 µM
[25] = second compound 3.16 µM, first compound 0.0316 µM
[26] = second compound 3.16 µM, first compound 0.1 µM
[27] = second compound 3.16 µM, first compound 0.316 µM
[28] = second compound 3.16 µM, first compound 1 µM
[29] = second compound 3.16 µM, first compound 3.16 µM
[30] = second compound 3.16 µM, first compound 10 µM
[31] = second compound 10 µM, first compound 0.0316 µM
[32] = second compound 10 µM, first compound 0.1 µM
[33] = second compound 10 µM, first compound 0.316 µM
[34] = second compound 10 µM, first compound 1 µM
[35] = second compound 10 µM, first compound 3.16 µM
[36] = second compound 10 µM, first compound 10 µM

CC(=O)O[C@H]1C(=O)[C@@]2(C)[C@H]([C@H](OC(=O)c3ccccc3)[C@]3(O)C[C@H](OC(=O)[C@H](O)[C@@H](NC(=O)c4ccccc4)c4ccccc4)C(C)=C1C3(C)C)[C@]1(OC(C)=O)CO[C@@H]1C[C@@H]2O + Cc1[nH]c2ccc(F)cc2c1-c1nc2c3cccnc3c3ncccc3c2[nH]1
pIC50 (second compound 0.0316 µM): > 7.50 | pIC50 (second compound 0.1 µM): > 7.50 | pIC50 (second compound 0.316 µM): > 7.50 | pIC50 (second compound 1 µM): > 7.50 | pIC50 (second compound 3.16 µM): > 7.50 | pIC50 (second compound 10 µM): > 7.50 | viability, T/C [1]: 8.39% | viability, T/C [2]: 5.36% | viability, T/C [3]: 5.66% | viability, T/C [4]: 4.68% | viability, T/C [5]: 4.86% | viability, T/C [6]: 4.6% | viability, T/C [7]: 7.76% | viability, T/C [8]: 6.43% | viability, T/C [9]: 6.02% | viability, T/C [10]: 4.48% | viability, T/C [11]: 4.3% | viability, T/C [12]: 4.13% | viability, T/C [13]: 4.55% | viability, T/C [14]: 3.65% | viability, T/C [15]: 3.47% | viability, T/C [16]: 3.01% | viability, T/C [17]: 2.72% | viability, T/C [18]: 2.99% | viability, T/C [19]: 2.66% | viability, T/C [20]: 2.5% | viability, T/C [21]: 2.5% | viability, T/C [22]: 2.49% | viability, T/C [23]: 2.3% | viability, T/C [24]: 2.06% | viability, T/C [25]: 2.72% | viability, T/C [26]: 2.23% | viability, T/C [27]: 2.86% | viability, T/C [28]: 2.81% | viability, T/C [29]: 2.28% | viability, T/C [30]: 2.17% | viability, T/C [31]: 1.84% | viability, T/C [32]: 2.38% | viability, T/C [33]: 2.16% | viability, T/C [34]: 2.22% | viability, T/C [35]: 2.3% | viability, T/C [36]: 2.4%

CC(C)n1c(=O)n(C)c2cnc3cc(F)c(-c4ccc(OCCCN5CCCCC5)nc4)cc3c21 + Cc1cnc(CNC(=O)c2c(=O)c3ccc(N4CCCN(C)CC4)nc3n3c2sc2ccccc23)cn1
pIC50 (second compound 0.0316 µM): > 7.50 | pIC50 (second compound 0.1 µM): > 7.50 | pIC50 (second compound 0.316 µM): > 7.50 | pIC50 (second compound 1 µM): > 7.50 | pIC50 (second compound 3.16 µM): > 7.50 | pIC50 (second compound 10 µM): > 7.50 | viability, T/C [1]: 13.7% | viability, T/C [2]: 11.3% | viability, T/C [3]: 10.6% | viability, T/C [4]: 11.4% | viability, T/C [5]: 10.2% | viability, T/C [6]: 11.2% | viability, T/C [7]: 12.4% | viability, T/C [8]: 12.1% | viability, T/C [9]: 12.4% | viability, T/C [10]: 10.7% | viability, T/C [11]: 11.3% | viability, T/C [12]: 7.45% | viability, T/C [13]: 15.1% | viability, T/C [14]: 11.4% | viability, T/C [15]: 11.7% | viability, T/C [16]: 11.4% | viability, T/C [17]: 9.7% | viability, T/C [18]: 8.1% | viability, T/C [19]: 13% | viability, T/C [20]: 12.8% | viability, T/C [21]: 9.09% | viability, T/C [22]: 9.18% | viability, T/C [23]: 9.72% | viability, T/C [24]: 7.74% | viability, T/C [25]: 8.77% | viability, T/C [26]: 9.43% | viability, T/C [27]: 9.15% | viability, T/C [28]: 11.1% | viability, T/C [29]: 10.6% | viability, T/C [30]: 6.66% | viability, T/C [31]: 12.3% | viability, T/C [32]: 7.9% | viability, T/C [33]: 9.45% | viability, T/C [34]: 9.57% | viability, T/C [35]: 8.82% | viability, T/C [36]: 9.01%

C=CC(=O)N1CCN(c2nc(=O)n(-c3c(C)ccnc3C(C)C)c3nc(-c4c(O)cccc4F)c(F)cc23)C(C)C1 (stereo not drawn) + Cc1[nH]c2ccc(F)cc2c1-c1nc2c3cccnc3c3ncccc3c2[nH]1
pIC50 (second compound 0.0316 µM): < 5.00 | pIC50 (second compound 0.1 µM): < 5.00 | pIC50 (second compound 0.316 µM): < 5.00 | pIC50 (second compound 1 µM): > 7.50 | pIC50 (second compound 3.16 µM): > 7.50 | pIC50 (second compound 10 µM): > 7.50 | viability, T/C [1]: 104% | viability, T/C [2]: 70.5% | viability, T/C [3]: 103% | viability, T/C [4]: 45.8% | viability, T/C [5]: 94.8% | viability, T/C [6]: 87.5% | viability, T/C [7]: 90.2% | viability, T/C [8]: 89.7% | viability, T/C [9]: 80.6% | viability, T/C [10]: 75.1% | viability, T/C [11]: 92.8% | viability, T/C [12]: 99.2% | viability, T/C [13]: 70.5% | viability, T/C [14]: 93.9% | viability, T/C [15]: 76.2% | viability, T/C [16]: 78.9% | viability, T/C [17]: 80% | viability, T/C [18]: 56.8% | viability, T/C [19]: 3.43% | viability, T/C [20]: 3.79% | viability, T/C [21]: 6.26% | viability, T/C [22]: 4.23% | viability, T/C [23]: 4.27% | viability, T/C [24]: 2.01% | viability, T/C [25]: 3.63% | viability, T/C [26]: 4.79% | viability, T/C [27]: 4.74% | viability, T/C [28]: 4.03% | viability, T/C [29]: 4.45% | viability, T/C [30]: 2.13% | viability, T/C [31]: 4.57% | viability, T/C [32]: 4.39% | viability, T/C [33]: 4.91% | viability, T/C [34]: 5.12% | viability, T/C [35]: 4.17% | viability, T/C [36]: 2.46%

CCCS(=O)(=O)Nc1ccc(F)c(C(=O)c2c[nH]c3ncc(-c4ccc(Cl)cc4)cc23)c1F + Cc1[nH]c2ccc(F)cc2c1-c1nc2c3cccnc3c3ncccc3c2[nH]1
pIC50 (second compound 0.0316 µM): 5.32 | pIC50 (second compound 0.1 µM): 5.27 | pIC50 (second compound 0.316 µM): 5.86 | pIC50 (second compound 1 µM): > 7.50 | pIC50 (second compound 3.16 µM): > 7.50 | pIC50 (second compound 10 µM): > 7.50 | viability, T/C [1]: 97.9% | viability, T/C [2]: 95.9% | viability, T/C [3]: 98.4% | viability, T/C [4]: 59.4% | viability, T/C [5]: 80.5% | viability, T/C [6]: 19.3% | viability, T/C [7]: 104% | viability, T/C [8]: 91.6% | viability, T/C [9]: 77.5% | viability, T/C [10]: 64.8% | viability, T/C [11]: 82.1% | viability, T/C [12]: 11.7% | viability, T/C [13]: 86.6% | viability, T/C [14]: 81.1% | viability, T/C [15]: 81.4% | viability, T/C [16]: 53.2% | viability, T/C [17]: 32.3% | viability, T/C [18]: 2.23% | viability, T/C [19]: 4.32% | viability, T/C [20]: 3.48% | viability, T/C [21]: 3.41% | viability, T/C [22]: 3.93% | viability, T/C [23]: 4.28% | viability, T/C [24]: 3% | viability, T/C [25]: 3.26% | viability, T/C [26]: 3.6% | viability, T/C [27]: 3.61% | viability, T/C [28]: 3.81% | viability, T/C [29]: 3.5% | viability, T/C [30]: 2.72% | viability, T/C [31]: 3.29% | viability, T/C [32]: 3.66% | viability, T/C [33]: 4.63% | viability, T/C [34]: 3.69% | viability, T/C [35]: 3.96% | viability, T/C [36]: 2.93%
